Test system: FAAH substrates (AEA, OEA, and PEA)
Assay: Brain and GI tissue fatty acid amide levels in cortagine-induced visceral hypersensitive rats (LC-MS/MS)
Type: in vivo, rat
Procedure: Rats were treated with the FAAH inhibitor URB597 [3′-(aminocarbonyl) biphenyl-3-yl cyclohexylcarbamate](3 mg/kg, SC route) or vehicle (DMSO/cremophor/isotonic saline (1:1:8 v:v:v), PO route) in the cortagine-induced visceral hypersensitivity model as described in Example 3. Briefly Male Sprague-Dawley rats were habituated to Bollman cages for 3 days. The following day, rats were anesthetized with isoflurane and a 5 cm balloon pressure sensor was inserted into the distal colon 1 cm from the anus. After 20 min, a first colorectal distension (CRD) baseline was performed (10, 20, 40, 60 mmHg, 20 s duration, 4 min inter-stimulus) and the visceromotor response (VMR) assessed. After the first CRD, rats were treated with URB597 (3 mg/kg in vehicle, SC route) or vehicle (DMSO/cremophor/isotonic saline (1:1:8 v:v:v), PO route). Two hours later, rats were treated with cortagine (10 μg/kg in vehicle, IP route). After 15 min, a second CRD was performed.
Thirty min after the second CRD, rats were anesthetized with isoflurane, decapitated, and brains were collected rapidly, placed on sheets of aluminum foil sitting on dry ice to flash freeze. A 5 cm-long segment of jejunum and a 5 cm-long segment of ascending colon were collected, split open, dipped in ice-cold physiological saline to rinse away intestinal contents, placed on aluminum foil on top of dry ice to flash freeze. Then, brains, jejunum and ascending colon were placed in separate labeled Falcon tubes, respectively, and stored at −80° C.
On each experimental day, one naive untreated rat (n=6 total) (not treated with test compounds, not treated with cortagine and not subjected to CRD assay), kept in normal housing and handling conditions was also euthanized and its brain, jejunum and ascending colon collected as described above. The other rats were euthanized by CO2 inhalation followed by thoracotomy.
Levels of the endocannabinoids N-arachidonoyl-ethanolamide (AEA, anandamide), N-oleoyl-ethanolamide (OEA) and N-palmitoyl-ethanolamide (PEA) in the brain, jejunum and ascending colon were measured by LC-MS/MS.
The fatty acid amides were extracted from the samples and standards by modifications of the method described in Richardson et al, Analytical Biochemistry, 2007, 360: 216-226, as described below.
Intestine samples were removed from the −80° C. freezer and placed on dry ice. Each intestine sample was weighed in a clean, tared 50 mL polypropylene BD Falcon tube and placed on wet ice after recording the weight. Using a glass pipette, 7 mL of (room temp.) 9:1 ethyl acetate:hexane were added to each intestine. Then, 2.5 μL of 5 μg/mL of IS (12.5 ng, prepared as indicated below) was added to each intestine sample. One conical container was removed at a time from the wet ice and homogenized until the tissue was uniformly minced. Using a homogenizer probe, the contents were homogenized for 30 seconds; 3 mL of water were added to each intestine sample, then homogenized for an additional 15 seconds. The homogenizer probe was rinsed with water between samples and with water and 70% EtOH between dose groups. The homogenates were vortexed for ˜5 sec then centrifuged at […], 3500 rpm for 20 minutes. The ethyl acetate layer (top layer) was recovered and placed in 15 mL glass tubes. The solvent was evaporated under nitrogen (TurboVap, 55° C.) until dry and the tissue extracts were reconstituted in 0.25 mL of 1:3 CHCl3:MeOH. Then the glass tubes were placed in a 37° C. shaking water bath for 5 min and vortexed again to re-suspend them. The samples were transferred to Eppendorf tubes and centrifuged (at room temp) at 13,000 rpm for 3 min. Then, 75 μL of each sample and standard was transferred to a 96 deep well plate on wet ice, and the remaining supernatant was stored at −80° C. The samples and standards were diluted to 1:1 using a multi-channel pipette by adding 75 μL of 100 ng/mL d-4-AEA in ice-cold methanol and pipetting up and down to mix. […]

[1] = URB597 3 mg/kg SC, first trial, Student's t test

SMILES: NC(=O)c1cccc(-c2cccc(OC(=O)NC3CCCCC3)c2)c1 [URB597, 3′-(aminocarbonyl) biphenyl-3-yl cyclohexyl carbamate, reference compound]
- levels of AEA, OEA and PEA in the brain, ascending colon and jejunum (URB597 3 mg/kg SC single administration, cortagine-induced visceral hypersensitive rats, first trial, 3 mg/kg): elevated levels of the three FAAH substrates
- levels of AEA and PEA in the jejunum [1]: statistically different from those in the naïve rats
- levels of AEA, OEA, and PEA in the ascending colon versus vehicle treated and naïve rats [1]: statistically different from those in the vehicle treated and naïve rats
- levels of AEA, OEA, and PEA in the brain versus vehicle treated and naïve rats [1]: statistically different from those in the vehicle treated and naïve rats
- levels of OEA in the jejunum [1]: statistically different from those in the vehicle treated and naïve rats
- levels of AEA, OEA and PEA in the brain, ascending colon and jejunum (second trial, URB597 3 mg/kg SC + cortagine 10 ug/kg IP): elevated levels of the three FAAH substrates
